Molecular target: T1, IDO (IFNγ-treated Hela cells) (Homo sapiens, UniProt P14902)
T1 construct: endogenous in cells; host or cells: Hela cells treated with IFNγ (10 ng/ml)
Assay: IDO Kynurenine Assay with Hela Cells
Type: cell-based
Conditions: IFNγ 10 ng/ml, 20 hours incubation, kynurenine absorbance at 490 nm, read-out: Hela Cells LLE_IDO_ABS_DR (IC50)
Method: IDO Kynurenine Assay with Hela Cells
Hela cells were seeded at 30,000 cells per well in 40 ul RPMI/phenol red free media contains 10% FBS in a 384-well black wall clear bottom tissue culture plate (Matrix Technologies LLC). 270 nl of certain concentration of compound was then added to each well using ECHO liquid handling systems. 40 ul of IFNγ (R&D, 285-IF-100) at final concentration of 10 ng/ml was then added to column 2-24 with media to column 1 as control. The cells were incubated for 20 hours in 37° C. incubator with 5% CO2.
(§1) The compound treatments were stopped by adding trichloroacetic acid (Sigma-Aldrich) to a final concentration at 0.2%. The cell plate was further incubated at 50° C. for 30 minute. The equal volume supernatant (20 uL) and 0.2% (w/v) Ehrlich reagent (4-dimethylaminobenzaldehyde, Sigma-Aldrich) in glacial acetic acid were mixed in a new clear bottom 384-well plate. This plate was then incubated at room temperature for 30 minute. The absorbance at 490 nm was measured on Envision plate reader.
Compound IC50 values were calculated using the counts of no IFNγ control as one hundred percent inhibition, and counts of no compound but DMSO treatment as zero percent inhibition.

T1 sequence (P14902 whole entry): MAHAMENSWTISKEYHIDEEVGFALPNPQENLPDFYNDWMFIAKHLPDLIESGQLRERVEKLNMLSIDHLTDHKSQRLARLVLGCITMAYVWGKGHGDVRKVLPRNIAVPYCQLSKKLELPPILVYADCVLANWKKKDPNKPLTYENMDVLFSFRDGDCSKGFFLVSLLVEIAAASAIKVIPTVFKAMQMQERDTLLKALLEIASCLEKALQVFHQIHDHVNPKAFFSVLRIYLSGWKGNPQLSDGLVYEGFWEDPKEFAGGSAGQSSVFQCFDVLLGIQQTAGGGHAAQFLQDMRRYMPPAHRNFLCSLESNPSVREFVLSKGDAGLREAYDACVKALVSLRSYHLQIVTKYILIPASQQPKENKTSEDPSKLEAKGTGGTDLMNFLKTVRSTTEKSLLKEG

First: CC(C)CN(CC(C)C)c1ccc(-c2ccccc2-c2nnn[nH]2)cc1NC(=O)Cc1ccc(F)cc1 [Example 12, N-(4-(diisobutylamino)-2′-(1H-tetrazol-5-yl)biphenyl-3-yl)-2-(4-fluorophenyl)acetamide]
Second: COc1ccc(OC(=O)Nc2cc(-c3ccccc3-c3nnn[nH]3)ccc2N(CC(C)C)CC(C)C)cc1 [Example 50, 4-methoxyphenyl (4-(diisobutylamino)-2′-(1H-tetrazol-5-yl)-[1,1′-biphenyl]-3-yl)carbamate]
The IC50 of the first is 12-fold lower: 10 nM for the first, 120 nM for the second.

Cc1ccc(CC(=O)Nc2cc(-c3ccccc3-c3nnn[nH]3)ccc2-n2cccn2)cc1 [Example 46, 2-(4-methylphenyl)-N-[2-(1H-pyrazol-1-yl)-5-[2-(1H-1,2,3,4-tetrazol-5-yl)phenyl]phenyl]acetamide] and O=C(Cc1ccccc1C(F)(F)F)Nc1cc(-c2ccccc2-c2nnn[nH]2)ccc1-n1cccn1 [Example 76] are within 1.5-fold of each other in IC50: 230 nM for the first, 280 nM for the second.

Compared with CC(C)CN(Cc1ccccc1)c1ccc(-c2ccccc2-c2nnn[nH]2)cc1NC(=O)CC(C)(C)C [Example 47, N-(4-(Benzyl(isobutyl)amino)-2′-(2H-tetrazol-5-yl)biphenyl-3-yl)-3,3-dimethylbutanamide], Cc1ccc(CC(=O)Nc2cc(-c3ccccc3-c3nnn[nH]3)ccc2N(Cc2ccccc2)CC(C)C)cc1 [Example 74] is 150-fold lower in IC50: 470 nM for the first, 3.06 nM for the second.

Going from CC(C)CN(Cc1ccccc1)c1ccc(-c2ccccc2-c2nnn[nH]2)cc1NC(=O)[C@H](O)c1ccccc1 [Example 48, (R)—N-(4-(Benzyl(isobutyl)amino)-2′-(1H-tetrazol-5-yl)biphenyl-3-yl)-2-hydroxy-2-phenylacetamide] to CC(C)CN(Cc1ccccc1)c1ccc(-c2ccccc2-c2nnn[nH]2)cc1NC(=O)Cc1ccc(C#N)cc1 [Example 54], the IC50 falls from 1610 nM to 10 nM (160-fold). The second is the more potent here.

Going from CC(C)CN(CC(C)C)c1ccc(-c2ccccc2-c2nnn[nH]2)cc1NC(=O)Oc1ccc2c(c1)OCO2 [Example 51, benzo[d][1,3]dioxol-5-yl (4-(diisobutylamino)-2′-(1H-tetrazol-5-yl)-[1,1′-biphenyl]-3-yl) carbamate] to COc1ccc(OC(=O)Nc2cc(-c3ccccc3-c3nnn[nH]3)ccc2N(CC(C)C)CC(C)C)cc1F [Example 52, 3-fluoro-4-methoxyphenyl (4-(diisobutylamino)-2′-(1H-tetrazol-5-yl)-[1,1′-biphenyl]-3-yl) carbamate], the IC50 rises from 3910 nM to 6560 nM (1.7-fold). The first is the more potent here.

First: CC(C)CN(CC(C)C)c1ccc(-c2ccccc2-c2nnn[nH]2)cc1NC(=O)Oc1ccc(OCc2ccccc2)cc1 [Example 53, 4-(benzyloxy)phenyl (4-(diisobutylamino)-2′-(1H-tetrazol-5-yl)-[1,1′-biphenyl]-3-yl)carbamate]
Second: Cc1ccc(CC(=O)Nc2cc(-c3ccccc3-c3nnn[nH]3)ccc2N2CC3CC2CN3Cc2ccccc2)cc1 (stereo not shown) [Example 80]
The IC50 of the first is 390-fold higher: 3250 nM for the first, 8.44 nM for the second.

Cc1ccc(CC(=O)Nc2cc(-c3ccccc3-c3nnn[nH]3)ccc2N2CCC(F)(F)C2)cc1 [Example 75] and N#Cc1ccc(CC(=O)Nc2cc(-c3ccccc3-c3nnn[nH]3)ccc2N2CC3CC2CN3Cc2ccccc2)cc1 (stereo not shown) [Example 79] are within 1.5-fold of each other in IC50: 1810 nM for the first, 2510 nM for the second.

CC(C)(C)CC(=O)Nc1cc(-c2ccccc2-c2nnn[nH]2)ccc1-n1cccn1 [Example 78] and CC(C)(C)CC(=O)Nc1cc(-c2ccccc2-c2nnn[nH]2)ccc1N1CC2CC1CN2Cc1ccccc1 (stereo not shown) [Example 82] are within 1.5-fold of each other in IC50: 4440 nM for the first, 3610 nM for the second.

First: O=C(Cc1ccccc1C(F)(F)F)Nc1cc(-c2ccccc2-c2nnn[nH]2)ccc1N1CC2CC1CN2Cc1ccccc1 (stereo not shown) [Example 81]
Second: O=C(Nc1cc(-c2ccccc2-c2nnn[nH]2)ccc1N1CC2CC1CN2Cc1ccccc1)[C@H](O)c1ccccc1 (stereo partly shown) [Example 83]
The IC50 of the first is 89-fold lower: 100 nM for the first, 8920 nM for the second. The first is the more potent here.

Molecular target: T2, Human IDO1 (Homo sapiens, UniProt P14902)
T2 construct: expressed in transfected cells; host or cells: HEK293
Assay: IDO Kynurenine Assay with Human IDO1/HEK293 Cells
Type: cell-based
Conditions: 20 hours incubation, kynurenine absorbance at 490 nm, read-out: HEK human IDO-1 (IC50)
Method: IDO Kynurenine Assay with Human IDO1/HEK293 Cells
Human IDO1/HEK293 cells were seeded at 10,000 cells per 50 uL per well with RPMI/phenol red free media contains 10% FBS in a 384-well black wall clear bottom tissue culture plate (Matrix Technologies LLC) 125 nL of certain concentration of compound was then added to each well using ECHO liquid handling systems. The cells were incubated for 20 hours in 37° C. incubator with 5% CO2.
as §1, with “Trichloroacetic Acid” for “trichloroacetic acid”
Compound IC50 values were calculated using the counts of 500 nM of a reference standard treatment as one hundred percent inhibition, and counts of no compound but DMSO treatment as zero percent inhibition.

T2 sequence (P14902 whole entry): as above

CC(C)CN(CC(C)C)c1ccc(-c2ccccc2-c2nnn[nH]2)cc1NC(=O)Cc1ccc(F)cc1 [Example 12, N-(4-(diisobutylamino)-2′-(1H-tetrazol-5-yl)biphenyl-3-yl)-2-(4-fluorophenyl)acetamide] and CC(C)CN(CC(C)C)c1ccc(-c2ccccc2-c2nnn[nH]2)cc1NC(=O)Cc1ccc(I)cc1 [Example 49, N-(4-(diisobutylamino)-2′-(1H-tetrazol-5-yl)-[1,1′-biphenyl]-3-yl)-2-(4-iodophenyl)acetamide] are within 1.5-fold of each other in IC50: 2.99 nM for the first, 3.17 nM for the second.

First: Cc1ccc(CC(=O)Nc2cc(-c3ccccc3-c3nnn[nH]3)ccc2N(CC(C)C)CC(C)C)cn1 [Example 55]
Second: CC(C)CN(CC(C)C)c1ccc(-c2ccccc2-c2nnn[nH]2)cc1NC(=O)Cc1ccc(Cl)nc1 [Example 67]
The IC50 of the first is 6-fold higher: 120 nM for the first, 20 nM for the second. The second is the more potent here.

Going from COC(C)(C)CCN(c1ccc(-c2ccccc2-c2nnn[nH]2)cc1NC(=O)Cc1ccc(C)nc1)C1CCCCC1 [Example 56] to N#Cc1ccc(CC(=O)Nc2cc(-c3ccccc3-c3nnn[nH]3)ccc2N(CCCC(F)(F)F)C2CCCCC2)cc1 [Example 71], the IC50 falls from 7440 nM to 270 nM (28-fold). The second is the more potent here.

First: CC(C)CN(CC(C)C)c1ccc(-c2ccccc2-c2nnn[nH]2)cc1NC(=O)Cc1ccncc1 [Example 57]
Second: CC(C)CN(CC(C)C)c1ccc(-c2ccccc2-c2nnn[nH]2)cc1NC(=O)Cc1ccsc1 [Example 66]
The IC50 of the first is 18-fold higher: 360 nM for the first, 20 nM for the second. The second is the more potent here.

Going from Cc1ccc(CC(=O)Nc2cc(-c3ccccc3-c3nnn[nH]3)cc(F)c2N(CC(C)C)C2CCCCC2)cc1 [Example 58] to Cc1ccc(CC(=O)Nc2cc(-c3ccccc3C(=O)O)cc(F)c2N(CC(C)C)C2CCCCC2)cc1 [Example 59], the IC50 rises from 10 nM to 80 nM (8-fold).

Going from Cc1ccc(CC(=O)Nc2cc(-c3cc(F)ccc3C(=O)O)cc(F)c2N(CC(C)C)C2CCCCC2)cc1 [Example 60] to Cc1cc(CC(=O)Nc2cc(-c3cc(F)ccc3C(=O)O)ccc2N(CC(C)C)C2CCCCC2)on1 [Example 77], the IC50 rises from 30 nM to 300 nM (10-fold). The first is the more potent here.

CCC(CC)N(CC(C)C)c1ccc(-c2cc(F)ccc2C(=O)O)cc1NC(=O)Cc1ccc(C)cc1 [Example 61] and CCC(CC)N(CC(C)C)c1ccc(-c2ccccc2C(=O)O)cc1NC(=O)Cc1ccc(C)cc1 [Example 62] are the same in IC50: 20 nM for the first, 20 nM for the second.

Compared with CCC(CC)N(CC(C)C)c1ccc(-c2ccccc2-c2nnn[nH]2)cc1NC(=O)Cc1ccc(C)cc1 [Example 63], Cc1ccc(CC(=O)Nc2cc(-c3ccccc3-c3nnn[nH]3)ccc2N(Cc2ccccc2)CC(C)C)cc1 [Example 74] is 2.3-fold higher in IC50: 4.37 nM for the first, 10 nM for the second.

First: CC(C)CN(CC(C)C)c1ccc(-c2ccccc2-c2nnn[nH]2)cc1NC(=O)Cc1cc(Br)cs1 [Example 64]
Second: CC(C)CN(CC(C)C)c1ccc(-c2ccccc2-c2nnn[nH]2)cc1NC(=O)Cc1cccs1 [Example 65]
The IC50 of the first is 2-fold higher: 40 nM for the first, 20 nM for the second.

Going from CC(C)CN(CCOC(C)C)c1ccc(-c2ccccc2C(=O)O)cc1NC(=O)Cc1ccc(C#N)cc1 [Example 68] to CC(C)CN(CCOC(C)C)c1ccc(-c2cc(F)ccc2C(=O)O)cc1NC(=O)Cc1ccc(C#N)cc1 [Example 70], the IC50 falls from 4810 nM to 2930 nM (1.6-fold). The second is the more potent here.

Going from CC(C)CN(CCOC(C)C)c1ccc(-c2ccccc2-c2nnn[nH]2)cc1NC(=O)Cc1ccc(C#N)cc1 [Example 69] to CC(C)CN(c1cc(F)c(-c2ccccc2-c2nnn[nH]2)cc1NC(=O)Cc1ccc(C#N)cc1)C1CCCCC1 [Example 85], the IC50 falls from 170 nM to 40 nM (4.2-fold).

N#Cc1ccc(CC(=O)Nc2cc(-c3cc(F)ccc3C(=O)O)ccc2N(CCCC(F)(F)F)C2CCCCC2)cc1 [Example 72] and N#Cc1ccc(CC(=O)Nc2cc(-c3ccccc3C(=O)O)ccc2N(CCCC(F)(F)F)C2CCCCC2)cc1 [Example 73] are within 1.5-fold of each other in IC50: 1860 nM for the first, 2110 nM for the second.

Compared with Cc1ccc(CC(=O)Nc2cc(-c3ccccc3-c3nnn[nH]3)ccc2N2CC3CC2CN3Cc2ccccc2)cc1 (stereo not shown) [Example 80], O=C(Cc1ccccc1C(F)(F)F)Nc1cc(-c2ccccc2-c2nnn[nH]2)ccc1N1CC2CC1CN2Cc1ccccc1 (stereo not shown) [Example 81] is 21-fold higher in IC50: 5.13 nM for the first, 110 nM for the second. The first is the more potent here.

Going from CC(C)CN(c1cc(F)c(-c2ccccc2C(=O)O)cc1NC(=O)Cc1ccc(C#N)cc1)C1CCCCC1 [Example 84] to Cc1cc(CC(=O)Nc2cc(-c3cc(F)ccc3C(=O)O)c(F)cc2N(CC(C)C)C2CCCCC2)on1 [Example 87], the IC50 rises from 30 nM to 140 nM (4.7-fold).

Reference: patent US9895330B2, “IDO inhibitors” (BRISTOL-MYERS SQUIBB COMPANY, priority 2013, dated 2018)
